Numbers after ± are expanded uncertainties.
Test: molar heat capacity at constant pressure; xn = mol fraction of the nth substance listed
Details: 101 kPa, Liquid, Small sample (50 mg) DSC

ClCCCCCCCl [1,6-dichlorohexane] + CCCCCCCCCCCC
molar heat capacity at constant pressure [J/K/mol]
Details | 283.15 K | 288.15 K | 293.15 K | 298.15 K | 303.15 K | 308.15 K | 313.15 K | 318.15 K | 323.15 K
x1 = 0.0498 | 361.24 ± 5.6 | 363.25 ± 5.6 | 365.49 ± 5.7 | 367.75 ± 5.7 | 370.17 ± 5.7 | 372.73 ± 5.8 | 375.36 ± 5.8 | 378.07 ± 5.9 | 380.85 ± 5.9
x1 = 0.1003 | 354.21 ± 5.5 | 356.2 ± 5.5 | 358.37 ± 5.5 | 360.64 ± 5.6 | 363.07 ± 5.6 | 365.53 ± 5.7 | 368.13 ± 5.7 | 370.69 ± 5.7 | 373.37 ± 5.8
x1 = 0.1497 | 347.4 ± 5.4 | 349.35 ± 5.4 | 351.58 ± 5.5 | 353.74 ± 5.5 | 356.06 ± 5.5 | 358.52 ± 5.5 | 361.02 ± 5.6 | 363.62 ± 5.6 | 366.28 ± 5.7
x1 = 0.2527 | 333.57 ± 5.2 | 335.52 ± 5.2 | 337.63 ± 5.2 | 339.74 ± 5.3 | 341.93 ± 5.3 | 344.27 ± 5.3 | 346.63 ± 5.4 | 349.13 ± 5.4 | 351.62 ± 5.5
x1 = 0.4017 | 314.16 ± 4.9 | 315.92 ± 4.9 | 317.89 ± 4.9 | 319.79 ± 5 | 321.84 ± 5 | 323.95 ± 5 | 326.16 ± 5 | 328.4 ± 5.1 | 330.71 ± 5.1
x1 = 0.502 | 301.12 ± 4.7 | 302.83 ± 4.7 | 304.61 ± 4.7 | 306.46 ± 4.8 | 308.39 ± 4.8 | 310.38 ± 4.8 | 312.43 ± 4.8 | 314.57 ± 4.9 | 316.72 ± 4.9
x1 = 0.6 | 288.34 ± 4.5 | 289.93 ± 4.5 | 291.62 ± 4.5 | 293.38 ± 4.5 | 295.19 ± 4.6 | 297.07 ± 4.6 | 299.01 ± 4.6 | 300.97 ± 4.7 | 303.01 ± 4.7
x1 = 0.7011 | 275.07 ± 4.3 | 276.6 ± 4.3 | 278.22 ± 4.3 | 279.86 ± 4.3 | 281.55 ± 4.4 | 283.34 ± 4.4 | 285.15 ± 4.4 | 287 ± 4.5 | 288.89 ± 4.5
x1 = 0.7986 | 262.36 ± 4.1 | 263.83 ± 4.1 | 265.4 ± 4.1 | 266.9 ± 4.1 | 268.5 ± 4.2 | 270.16 ± 4.2 | 271.87 ± 4.2 | 273.6 ± 4.2 | 275.38 ± 4.3
x1 = 0.8998 | 249.37 ± 3.9 | 250.76 ± 3.9 | 252.22 ± 3.9 | 253.67 ± 3.9 | 255.12 ± 4 | 256.63 ± 4 | 258.18 ± 4 | 259.77 ± 4 | 261.42 ± 4
x1 = 0.9493 | 242.86 ± 3.8 | 244.24 ± 3.8 | 245.67 ± 3.8 | 247.09 ± 3.8 | 248.51 ± 3.9 | 249.99 ± 3.9 | 251.5 ± 3.9 | 253.03 ± 3.9 | 254.57 ± 3.9
x1 = 0.9691 | 240.39 ± 3.7 | 241.75 ± 3.8 | 243.14 ± 3.8 | 244.52 ± 3.8 | 245.9 ± 3.8 | 247.38 ± 3.8 | 248.85 ± 3.9 | 250.37 ± 3.9 | 251.9 ± 3.9
x1 = 1 | 236.59 ± 3.7 | 237.9 ± 3.7 | 239.26 ± 3.7 | 240.6 ± 3.7 | 241.94 ± 3.8 | 243.37 ± 3.8 | 244.81 ± 3.8 | 246.28 ± 3.8 | 247.76 ± 3.8

Source: the NIST ThermoML archive (doi:10.1021/je034177v)
